Literature values in US11905435B2, “Antimicrobial additive compositions for coatings” (PEGASUS ENVIRONMENTAL RESEARCH AND INVESTMENT GROUP LLC, priority 2020, dated 2024).

How the values were obtained:
[1] = system: Pityrosporum ovale; details: Imokawa et al. [6]
[2] = system: Saccharomyces cerevisiae yeast; details: Reeder et al. [7]
[3] = system: enteric bacteria; details: Bailey et al. [5]

| Compound | antifungal effects on Pityrosporum ovale [1] | anti-yeast effect on Saccharomyces cerevisiae [2] | antibacterial effects on enteric bacteria [3] |
| --- | --- | --- | --- |
| zinc pyrithione [CP] | antifungal effects | anti-yeast effect |  |
| OB(O)O [boric acid] |  |  | antibacterial effects |
